# In publication PMC7024211, “Antifouling Napyradiomycins from Marine-Derived Actinomycetes Streptomyces aculeolatus” (Marine Drugs, 2020):
# Columns and labels:
# [1] = tested on: M. galloprovincialis plantigrade larvae; assay: Mussel plantigrade larvae settlement, 15 h acute exposure assay; type: in vivo; conditions: 95% LCL, UCL in brackets; for EC50: Mytilus galloprovincialis, 15 h, read-out: EC50 [Conf. limits] larval settlement
# Procedure: (§1) Mussel (M. galloprovincialis) adhesive larvae (plantigrades) were used to assess in vivo the antifouling activity of napyradiomycins (1–12) towards macrofouling. Juvenile mussel aggregates were collected at the intertidal rocky shore during low spring tides, at Memória beach, Matosinhos, Portugal (41°13′59″ N; 8°43′28″ W). At the laboratory, immediately before the bioassays, mussel plantigrade larvae were screened and isolated from the juvenile aggregates using a binocular microscope (Olympus SZX2-ILLT, Hamburg, Germany) and washed with filtered seawater to remove organic debris. Only competent plantigrade larvae (those showing foot exploratory behavior) were selected and used in the exposure bioassays following previously validated procedures. Plantigrades were exposed in 24-well polystyrene plates for 15 h in the darkness at 18 °C. DMSO was used as solvent for crude extracts, fractions and pure compounds stock and working solutions. Working solutions were prepared by successive dilutions of stock solutions in DMSO and then diluted in filtered seawater to obtain the test solutions. DMSO concentration in test solutions was always 0.1%. Four well replicates were used per condition with five larvae per well. Two negative controls, one with ultra-pure water and the other with DMSO 0.1% were included in all bioassays, as well as a positive control with 5 μM CuSO4 (a potent antifouling agent). Anti-settlement bioactivity was determined by the presence/absence of fixed byssal threads produced by each individual larvae for all the conditions tested. […] Chi-square Pearsons goodness-of-fit test was applied to data in order to determine EC50. Significance was considered at p < 0.01 for all analyses, and 95% lower and upper confidence limits [95% LCL; UCL] were presented. Therapeutic ratio (LC50/EC50) was used to evaluate the effectiveness vs. toxicity of compounds [19, 21].
# [2] = as above; type: in vivo; conditions: Mytilus galloprovincialis (mussel, plantigrade larvae), in vivo, no mortality at highest tested concentration 12 µg/mL
# Procedure: as §1
# C. marina [3] = assay: Bacterial growth inhibition assay (OD600nm); type: cell-based, Cobetia marina; conditions: 31.25 µg/mL
# Text: (§2) Five marine bacterial species were used as models to assess antimicrofouling activity. The biofilm-forming marine bacteria Marinobacter hydrocarbonoclasticus DSM 8798 (ATCC 49840), Cobetia marina DSM 4741, Phaeobacter inhibens DSM 17,395, and Pseusooceanicola batsensis DSM 15,984 were obtained from DSMZ (Leibniz Institute DSMZ—German collection of Microorganisms and Cell Cultures) and Micrococcus luteus. Cultures were routinely grown in liquid marine broth (Carl Roth GmbH, Karlsruhe, Germany) with agitation (180 rpm) or on agar-supplemented marine broth, at 28 °C (M. hydrocarbonoclasticus and C. marina) or 30 °C (P. inhibens and P. batsensis). M. luteus was maintained in Brain Heart Infusion broth (BHI, Becton Dickinson, GmbH, Heidelberg, Germany) with agitation (180 rpm) or on agar-supplemented BHI, at 37 °C.
# (§3) The antibacterial activity of the napyradiomycins (1–12) was assessed in 96-well polystyrene flat bottom microplates (Nunclon Delta Surface, Thermo Scientific, Roskilde, Denmark) following previously reported procedures. […] After 24 h (M. hydrocarbonoclasticus, C. marina) or 48 h (P. batsensis, P. inhibens, M. luteus) incubation, the OD600nm was determined (Molecular Devices, Spectra Max 190). […] The percentage of growth inhibition was calculated as the amount of growth relative to that of the bacterial species without added compounds (with the same amount of DMSO added). CuSO4 (5 μM), a potent antifouling agent used in antifouling paints, was used as reference.
# (§4) All assays were performed in triplicate, and results are representative of the average and standard error of the mean (SEM). Statistical analysis was performed in GraphPad Prism 8.0.2 (San Diego, CA, USA), using one-way ANOVA followed by a Dunnett’s multiple comparisons test against the control (species grown with the same amount of DMSO added).
# M. hydrocarbonoclasticus [4] = assay: Biofilm inhibition assay (crystal violet); type: cell-based, Marinobacter hydrocarbonoclasticus; conditions: Marinobacter nauticus; for inhibition at 31.25 µg/mL: read-out: % Biofilm Inhibition ± SEM M. hydrocarbonoclasticus
# Procedure: (§5) In a 96-well plate, biofilm grown cultures of M. hydrocarbonoclasticus and C. marina were incubated with napyradiomycins (1–12) at a concentration of 31.25 µg/mL. After discarding the media, biofilm inhibition was determined from OD600 measurements of crystal violet stained cells resuspended from the plate bottom with acetic acid.
# as §2
# (§6) The antibiofilm activity of napyradiomycins (1–12) against the five marine bacterial species was assessed in 96-well polystyrene flat bottom microplates (Nunclon Delta Surface, Thermo Scientific, Roskilde, Denmark) as previously reported. For initial screening, bacterial overnight cultures were diluted to an optical density (OD600nm) value of 0.2 and incubated statically at 28 °C (M. hydrocarbonoclasticus, C. marina), 30 °C (P. inhibens, P. batsensis) or 37 °C (M. luteus) in the 96-well microplate in the presence or absence of 31.25 µg/mL of napyradiomycins, solubilized in DMSO. After 24 h (M. hydrocarbonoclasticus, C. marina) or 48 h (P. batsensis, P. inhibens, M. luteus) incubation, the OD600nm was determined. The planktonic cells and media were discarded, and the wells were washed twice with deionized water. The biofilm was fixed for 1 h at 60 °C and stained with crystal violet 0.06% for 10 min. The dye was discarded, and the wells were again washed twice with deionized water. The stained biofilm was solubilized with 30% acetic acid and the OD600nm was determined. […] The percentage of biofilm inhibition was calculated as the amount of biofilm relative to that of the bacterial species without added compounds (with the same amount of DMSO added). CuSO4 (5 μM), a potent antifouling agent used in antifouling paints, was used as reference.
# (§7) All assays were performed in triplicate, and results are representative of the average and standard error of the mean (SEM). Statistical analysis was performed in GraphPad Prism 8.0.2, using one-way ANOVA followed by a Dunnett’s multiple comparisons test against the control (species grown with the same amount of DMSO added).
# C. marina [5] = assay: Biofilm inhibition assay (crystal violet); type: cell-based, Cobetia marina; conditions: 31.25 µg/mL
# Procedure: as §5, §2, §6, §7
# M. hydrocarbonoclasticus [6] = assay: Bacterial growth inhibition assay (OD600nm); type: cell-based, Marinobacter hydrocarbonoclasticus; conditions: 31.25 µg/mL
# Procedure: As a first screening approach, liquid cultures of M. hydrocarbonoclasticus, and C. marina in a 96-well format were analyzed for bacterial growth inhibition by percent decrease in OD600 after incubation with napyradiomycins (1–12) at 31.25 µg/mL.
# as §2
# The antibacterial activity of the napyradiomycins (1–12) was assessed in 96-well polystyrene flat bottom microplates (Nunclon Delta Surface, Thermo Scientific, Roskilde, Denmark) following previously reported procedures. For initial screening, bacterial overnight cultures were diluted to an optical density (OD600nm) of 0.2 and incubated statically at 28 °C (M. hydrocarbonoclasticus, C. marina), 30 °C (P. inhibens, P. batsensis) or 37 °C (M. luteus) in a 96-well microplate in the presence or absence of 31.25 µg/mL of the napyradiomycins, solubilized in DMSO. After 24 h (M. hydrocarbonoclasticus, C. marina) or 48 h (P. batsensis, P. inhibens, M. luteus) incubation, the OD600nm was determined (Molecular Devices, Spectra Max 190). […] The percentage of growth inhibition was calculated as the amount of growth relative to that of the bacterial species without added compounds (with the same amount of DMSO added). CuSO4 (5 μM), a potent antifouling agent used in antifouling paints, was used as reference.
# as §4
# [7] = cited from earlier work
# Daphnia magna [8] = conditions: experimental data ref Tisler and Zagorc-Koncan, 2003; cited from earlier work
# Oral rat/rabit = conditions: ref Acros Organics safety data sheet; cited from earlier work
# Scenedesmus quadricauda = conditions: experimental data ref Tisler and Zagorc-Koncan, 2003; cited from earlier work
# Orcorhynchus mykiss = conditions: experimental data ref Tisler and Zagorc-Koncan, 2003; cited from earlier work
# Daphnia magna [9] = conditions: experimental data ref Tisler and Zagorc-Koncan, 2003; cited from earlier work; remark: listed apart in the source
# M. luteus [10] = assay: Bacterial growth inhibition assay (OD600nm); type: cell-based, Micrococcus luteus
# Text: as §2, §3, §4
# P. inhibens = assay: Biofilm inhibition assay (crystal violet); type: cell-based, Phaeobacter inhibens; conditions: 31.25 µg/mL
# Procedure: as §5, §2, §6
# All assays were performed in triplicate, and results are representative of the average and standard error of the mean (SEM). […]
# M. luteus [11] = assay: Biofilm inhibition assay (crystal violet); type: cell-based, Micrococcus luteus
# Procedure: as §5, §2, §6, §7
# P. batsensis = assay: Biofilm inhibition assay (crystal violet); type: cell-based, Pseudooceanicola batsensis; conditions: Pseudooceanicola batsensis; 31.25 µg/mL; read-out: % Biofilm Inhibition ± SEM P. batsensis
# Procedure: as §5, §2, §6, §7
compound,measurement,setting,value
"C=C1CCC(Cl)C(C)(C)C1C[C@@]12OC(C)(C)[C@H](Cl)C=C1C(=O)c1c(cc(O)c(C)c1O)C2=O (stereo partly drawn) [Napyradiomycin 12, 4-dehydro-4a-dechloro-napyradiomycin A80915A]",EC50 [Conf. limits] larval settlement,[1],0.947 [0.586; 1.473] µg/mL
same,EC50,[1],0.95 µg/mL
same,LC50 at 15 h,[2],> 12 µg/mL
same,% growth inhibition C. marina,C. marina [3],did not inhibit growth
same,inhibition at 31.25 µg/mL,M. hydrocarbonoclasticus [4],33.7 ± 5.1%
same,% Biofilm Inhibition ± SEM C. marina,C. marina [5],N.I.
same,% growth inhibition M. hydrocarbonoclasticus,M. hydrocarbonoclasticus [6],did not inhibit growth
"Cc1c(O)cc2c(c1O)C(=O)C1(Cl)CC(Cl)C(C)(C)OC1(CC1C(C)(O)CCC(Cl)C1(C)C)C2=O (stereo not drawn) [Napyradiomycin 10, napyradiomycin A80915C]",EC50 [Conf. limits] larval settlement,[1],0.102 [0.072; 0.140] µg/mL
same,EC50,[1],0.1 µg/mL
same,LC50 at 15 h,[2],> 12 µg/mL
same,% growth inhibition C. marina,C. marina [3],did not inhibit growth
same,inhibition at 31.25 µg/mL,M. hydrocarbonoclasticus [4],25.1 ± 10.2%
same,% Biofilm Inhibition ± SEM C. marina,C. marina [5],N.I.
same,% growth inhibition M. hydrocarbonoclasticus,M. hydrocarbonoclasticus [6],did not inhibit growth
[As] [Arsenic],ATE category,[7],"2 (category 2, 5 < ATE ≤ 50 mg/Kg)"
same,Chronic toxicity Daphnia magna 21 day NOEC,Daphnia magna [8],1.85 mg/L
same,Acute toxicity Oral rat/rabit LD50,Oral rat/rabit,12 mg/kg
same,Aquatic toxicity Alga Scenedesmus quadricauda 72 hour IC50,Scenedesmus quadricauda,34.7 µg/mL
same,Aquatic toxicity Fish Orcorhynchus mykiss 96 hour LC50,Orcorhynchus mykiss,15.3 µg/mL
same,Aquatic toxicity Daphnia magna EC50 48 hour,Daphnia magna [9],2.5 µg/mL
"C=C(C)C(O)CC/C(C)=C/C[C@@]12OC(C)(C)[C@H](Cl)C[C@]1(Cl)C(=O)c1c(O)cc(O)cc1C2=O (stereo partly drawn) [Napyradiomycin 4, napyradiomycin A2]",inhibition at 0.98 µg/mL,"M. luteus [10]; Micrococcus luteus, 0.98 µg/mL",38.7 ± 1.9%
same,inhibition at 1.95 µg/mL,"M. luteus [10]; Micrococcus luteus, 1.95 µg/mL",51.7 ± 4.5%
same,inhibition at 3.91 µg/mL,"M. luteus [10]; Micrococcus luteus, 3.91 µg/mL",61.2 ± 3.7%
same,inhibition at 7.81 µg/mL,"M. luteus [10]; Micrococcus luteus, 7.81 µg/mL",53.3 ± 5.7%
same,inhibition at 15.6 µg/mL,"M. luteus [10]; Micrococcus luteus, 15.60 µg/mL",60.1 ± 8.5%
same,inhibition at 31.25 µg/mL,"M. luteus [10]; Micrococcus luteus, 31.25 µg/mL",72.5 ± 7.7%
same,% growth inhibition M. luteus,M. luteus [10]; all tested concentrations,approximately 50%
same,% Biofilm Inhibition ± SEM P. inhibens,P. inhibens,N.I.
same,EC50,[1],6.34 µg/mL
same,LC50 at 15 h,[2],> 12 µg/mL
same,inhibition at 0.98 µg/mL,"M. hydrocarbonoclasticus [4]; 0.98 µg/mL, read-out: % inhibition of biofilm formation M. hydro.",56.1 ± 5.6%
same,inhibition at 1.95 µg/mL,"M. hydrocarbonoclasticus [4]; 1.95 µg/mL, read-out: % inhibition of biofilm formation M. hydro.",78.1 ± 3%
same,inhibition at 3.91 µg/mL,"M. hydrocarbonoclasticus [4]; 3.91 µg/mL, read-out: % inhibition of biofilm formation M. hydro.",84.5 ± 2%
same,inhibition at 7.81 µg/mL,"M. hydrocarbonoclasticus [4]; 7.81 µg/mL, read-out: % inhibition of biofilm formation M. hydro.",67 ± 5.5%
same,inhibition at 15.6 µg/mL,"M. hydrocarbonoclasticus [4]; 15.6 µg/mL, read-out: % inhibition of biofilm formation M. hydro.",82.3 ± 1.5%
same,inhibition at 31.25 µg/mL,M. hydrocarbonoclasticus [4],56.9 ± 5.7%
same,% Biofilm Inhibition ± SEM C. marina,C. marina [5],N.I.
same,% inhibition of biofilm formation M. luteus,M. luteus [11]; 0.98 µg/mL,93.8 ± 4.1%
same,inhibition at 0.98 µg/mL,"M. luteus [11]; Micrococcus luteus, 0.98 µg/mL, read-out: % inhibition of biofilm formation M. luteus",> 90%
same,inhibition at 1.95 µg/mL,"M. luteus [11]; Micrococcus luteus, 1.95 µg/mL, read-out: % inhibition of biofilm formation M. luteus",91.7 ± 0.9%
same,inhibition at 3.91 µg/mL,"M. luteus [11]; Micrococcus luteus, 3.91 µg/mL, read-out: % inhibition of biofilm formation M. luteus",100 ± 0.4%
same,inhibition at 7.81 µg/mL,"M. luteus [11]; Micrococcus luteus, 7.81 µg/mL, read-out: % inhibition of biofilm formation M. luteus",86.7 ± 3%
same,inhibition at 15.6 µg/mL,"M. luteus [11]; Micrococcus luteus, 15.6 µg/mL, read-out: % inhibition of biofilm formation M. luteus",88.8 ± 4.2%
same,inhibition at 31.25 µg/mL,"M. luteus [11]; Micrococcus luteus, 31.25 µg/mL, read-out: % Biofilm Inhibition ± SEM M. luteus",97 ± 1.2%
same,inhibition at 31.25 µg/mL,P. batsensis,13.4 ± 0.8%
[Cu] [Copper],ATE category,[7],"3 (category 3, 50 < ATE ≤ 300 mg/Kg)"
same,Chronic toxicity Daphnia magna 21 day NOEC,Daphnia magna [8],0.015 mg/L
same,Acute toxicity Oral rat/rabit LD50,Oral rat/rabit,140 mg/kg
same,Aquatic toxicity Alga Scenedesmus quadricauda 72 hour IC50,Scenedesmus quadricauda,0.18 µg/mL
same,Aquatic toxicity Fish Orcorhynchus mykiss 96 hour LC50,Orcorhynchus mykiss,0.48 µg/mL
same,Aquatic toxicity Daphnia magna EC50 48 hour,Daphnia magna [9],0.030 µg/mL
